Values quoted from earlier work as cited in US10858659B2, “Biosynthetic gene cluster of carrimycin” (SHENYANG FUYANG PHARMACEUTICAL TECHNOLOGY CO., LTD., priority 2015, dated 2020).

Tests used:
[1] = in vivo

Question: Which in-vivo retention time does the source give for Carrimycin here?
Answer: The in-vivo retention time was “long”.

Question: And the absolute bioavailability (in vivo)?
Answer: The absolute bioavailability was “high”.

Question: What about the elimination half-life (in vivo) of the same substance?
Answer: Its elimination half-life is “long”.

Question: What about the “tissue concentration compared with blood plasma concentration” value (in vivo) of the same substance?
Answer: Its value is “higher than blood plasma concentration”.

Question: What about the tissue distribution (in vivo) of the same substance?
Answer: The tissue distribution was “wide”.

Question: What about the tissue penetrability (in vivo) of the same substance?
Answer: Its tissue penetrability is “high”.

Question: And the “oral administration absorption speed” value (in vivo, po)?
Answer: Its value is “high”.

Question: What about the adverse reaction rate [1] of the same substance?
Answer: Its adverse reaction rate is “low”.

Question: And the injury to livers [1]?
Answer: The injury to livers was “little”.

Question: And the safety [1]?
Answer: Its safety is “good”.
